This is an account of results in patent publication US20240319173A1, “REAGENTS AND METHODS FOR PROMOTING ARTERIAL ENDOTHELIUM DIFFERENTIATION AND NITRIC OXIDE PRODUCTION” (Wisconsin Alumni Research Foundation, priority 2023, published 2024).

Assay [1] concerns NOS3-NLuc-2A-tdTomato hPSCs. The assay can be described thus: Arterial endothelial cell (AEC) differentiation, flow cytometry for CD144+ DLL4+ cells. In kind it is cell-based, human. The following applies: for AEC differentiation from PSCs: general statement, timing not given. An excerpt: FIG. 3A is a bar graph showing arterial endothelial cell differentiation in response to treatment on days 2 through 6 of different concentrations of compounds identified in compound screening assays. Differentiated arterial endothelial cells were identified by flow cytometry for CD144+ DLL4+ cells after 6 days of treatment.
FIG. 3B is a bar graph showing arterial endothelial cell differentiation in response to three specific compounds at day 3-6 of differentiation.
NOS3-NLuc-Tom human pluripotent stem cells (hPSCs), prepared as set forth above, were cultured in E8BAC medium for two days (day 0-2) to induce mesoderm formation. On days 2-5 cells received Five Factor medium daily, and AEC collected on day 6. More than 90% of the resulting cells were CD144^+CXCR4^+DLL4^+, consistent with differentiation to AEC cells.
C21-C33 compounds were further tested to confirm their effects. […] Thus, the effects of C21, C22, and C24-C31 on AEC differentiation from NOS3-NLuc-2A-tdTomato hPSCs were measured.
(In general: A flow cytometer gives signals particle by particle.)

The next assay concerns AECs. Put plainly: Nitric oxide (NO) production assay with DAF-FM. In kind it is cell-based, human. The following applies: AECs treated for 2 days, 1 μM DAF-FM, flow cytometry (FIG. 4A, 4B). The procedure: FIG. 4A is a graph of nitric oxide (NO) production in response to contacting NOS3-NLuc-2A-tdTomato construct-containing reporter cells derived from arterial endothelial with compounds identified in the screen for 2 days.
These AECs were seeded on a vitronectin-coated 24-well plate (1×10^5 cells/well) with FVIR medium. Candidate compounds were added to the medium. Two days later, the medium was changed to fresh FVIR media containing 1 μM DAF-FM (4-Amino-5-Methylamino-2′,7′-Difluorofluorescein Diacetate). Cells were cultured for 30 mins and harvested for flow cytometric analysis. DAF-FM is nonfluorescent until it reacts with NO to form a fluorescent benzotriazole. Results of these experiments are shown in FIG. 3A, FIG. 3B, and FIG. 4.

Where [2] appears, read: compound added from day 2 to day 6 of differentiation, dose-dependent (FIG. 3A).
Setting [3] is: compound added from day 3 to day 6 of differentiation (FIG. 3B).

For the molecule `O=S(=O)(N1CCCCCC1)N1CCN(c2ccnc3cc(Cl)ccc23)CC1` [C21], the “percentage of AEC on day 6 compared to control treatment” value (“percentage of AEC” below) in assay [1] (setting [2]) is given as “increase”; in assay [1] (setting [3]), “increased”. In assay [1], the “AEC differentiation from PSCs” value is “increase”. Further, the “NO production (DAF-FM fluorescence) compared to control treatment” value (shortened to “NO production … compared to control treatment”) in the assay with AECs was “increase”.
Consider `COc1ccc(C2CCCN2Cc2cc(C(C)(C)C)cc(O)c2O)cc1` (centres unmarked) [C22], for which the “percentage of AEC” value in assay [1] (setting [2]) is recorded as “increase”. For the same molecule, in assay [1], the “AEC differentiation from PSCs” value was “increase”. The “NO production … compared to control treatment” value in the assay on AECs is “increase”.
In the case of `CCc1ccc(S(=O)(=O)N2CCCc3cc(C)ccc32)cc1` [C23], in assay [1] (setting [3]), the “percentage of AEC” value is “increased”. In addition, the “AEC differentiation from PSCs” value in assay [1] is “increase”. Also, the “NO production … compared to control treatment” value with AECs is on record as “increase”.
For `Cc1ccc(CN2C(=O)NC(C)(c3ccc(Cl)cc3Cl)C2=O)cc1` (centres unmarked) [C24], the “AEC differentiation from PSCs” value in assay [1] was “increase”. Also, in the assay on AECs, the “NO production … compared to control treatment” value is “increase”.
As for `CNS(=O)(=O)c1ccc(NC2CCc3ccccc32)c([N+](=O)[O-])c1` (centres unmarked) [C25], the “AEC differentiation from PSCs” value in assay [1] is on record as “increase”.
Take `CC1=CC(=O)C2=C(C)CC[C@@H]3[C@H](OC(=O)[C@H]3C)[C@@H]12` [C28, Leucomisine]: the “AEC differentiation from PSCs” value in assay [1] is on record as “increase”.
As for `CNC(=O)c1c(F)cccc1Nc1nc(Nc2cc3c(cc2OC)CCN3C(=O)CN(C)C)nc2[nH]ccc12` [C31, GSK1838705A, reference compound], in the assay on AECs, the “NO production … compared to control treatment” value is on record as “increase”.
As for `CCCCCCCCCCCCCCCCCCOCC(COP(=O)([O-])OCC[N+](C)(C)C)OC` (centres unmarked) [C33, 1-Octadecyl-2-methylglycero-3 PC], the “percentage of AEC” value in assay [1] (setting [3]) is recorded as “increased”. In assay [1], the “AEC differentiation from PSCs” value is on record as “increase”.
